System: male mice
Experiment: Analysis of intestinal injury by 12 Gy of local abdominal irradiation
Format: in vivo
Settings: 12 Gy local abdominal irradiation
Experimental: 44 male mice were divided into 4 groups: • 1) TAI group, 10 mice; • 2) hypoxanthine group, 10 mice; • 3) IVIg group, 12 mice; • 4) IVIg+hypoxanthine group, 12 mice;
TAI group received only local abdominal irradiation.
Hypoxanthine was orally administered to the mice in hypoxanthine group 30 min before irradiation, followed by gavage through mouth every two days. The dose of hypoxanthine for each gavage was 50 mg/kg body weight.

[1] = hypoxanthine vs TAI group (FIG. 6), IVIg+hypoxanthine vs IVIg group (FIG. 8)

O=c1[nH]cnc2nc[nH]c12 [hypoxanthine]
no difference: length of the large intestine (hypoxanthine vs TAI group (FIG. 5), IVIg+hypoxanthine vs IVIg group (FIG. 7)) | level of inflammatory factor IL-6 in the small intestine [1] | level of inflammatory factor TNFα in the small intestine [1]

— patent US12186323B2, “Combination drugs of hypoxanthine and human immunoglobulin” (Institute of Blood Transfusion, Chinese Academy of Medical …, priority 2021, dated 2025)
